# Test results taken from PubChem BioAssay AID1963982 (Molecular Pharmacology Branch, DTP, NCI, 2024).
# Tested on: 313798-341-R-J2-PDC spheroids, viability
# Test: Anticancer human tumor 313798-341-R-J2-PDC patient-derived cervical squamous cell carcinoma cell line growth inhibition [PI3K]
# Details: spheroids with HUVEC and MSC; for IC50: curve of first compound; for viability, T/C: stronger effect = lower value
# Summary of the method: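 Three cell types, namely tumor cells, endothelial cells and mesenchymal stem cells, formed each spheroid. Combinations with four PI3K inhibitors were screened at clinically achievable concentrations decreasing by half-log, and spheroid viability was recorded.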
# [1] = second compound 0.0316 µM, first compound 0.0316 µM
# [2] = second compound 0.0316 µM, first compound 0.1 µM
# [3] = second compound 0.1 µM, first compound 0.0316 µM
# [4] = second compound 0.1 µM, first compound 0.1 µM
# [5] = second compound 0.316 µM, first compound 0.0316 µM
# [6] = second compound 0.316 µM, first compound 0.1 µM
# [7] = second compound 1 µM, first compound 0.0316 µM
# [8] = second compound 1 µM, first compound 0.1 µM
# [9] = second compound 3.16 µM, first compound 0.0316 µM
# [10] = second compound 3.16 µM, first compound 0.1 µM
# [11] = second compound 10 µM, first compound 0.0316 µM
# [12] = second compound 10 µM, first compound 0.1 µM
# 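Further: spheroids exposed to compounds for seven days.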
# 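Wherever viability, T/C is given: 100% = DMSO vehicle control viability.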
smiles,measurement,setting,value
CC(C)n1nc(-c2ccc3oc(N)nc3c2)c2c(N)ncnc21 + CC(Nc1ncnc2nc[nH]c12)c1cc2cccc(Cl)c2c(=O)n1-c1ccccc1,IC50,second compound 0.0316 µM,58.8 nM
same,IC50,second compound 0.1 µM,64.7 nM
same,IC50,second compound 0.316 µM,65.1 nM
same,IC50,second compound 1 µM,50 nM
same,IC50,second compound 3.16 µM,55.5 nM
same,IC50,second compound 10 µM,25.4 nM
same,"viability, T/C","second compound 0.0316 µM, first compound 0.000316 µM",102%
same,"viability, T/C","second compound 0.0316 µM, first compound 0.001 µM",96.8%
same,"viability, T/C","second compound 0.0316 µM, first compound 0.00316 µM",108%
same,"viability, T/C","second compound 0.0316 µM, first compound 0.01 µM",96.5%
same,"viability, T/C",[1],65.7%
same,"viability, T/C",[2],36.6%
same,"viability, T/C","second compound 0.1 µM, first compound 0.000316 µM",109%
same,"viability, T/C","second compound 0.1 µM, first compound 0.001 µM",92.9%
same,"viability, T/C","second compound 0.1 µM, first compound 0.00316 µM",97%
same,"viability, T/C","second compound 0.1 µM, first compound 0.01 µM",101%
same,"viability, T/C",[3],67.9%
same,"viability, T/C",[4],39.1%
same,"viability, T/C","second compound 0.316 µM, first compound 0.000316 µM",101%
same,"viability, T/C","second compound 0.316 µM, first compound 0.001 µM",94.2%
same,"viability, T/C","second compound 0.316 µM, first compound 0.00316 µM",100%
same,"viability, T/C","second compound 0.316 µM, first compound 0.01 µM",97.4%
same,"viability, T/C",[5],66.4%
same,"viability, T/C",[6],40.2%
same,"viability, T/C","second compound 1 µM, first compound 0.000316 µM",100%
same,"viability, T/C","second compound 1 µM, first compound 0.001 µM",91.5%
same,"viability, T/C","second compound 1 µM, first compound 0.00316 µM",99.8%
same,"viability, T/C","second compound 1 µM, first compound 0.01 µM",89.7%
same,"viability, T/C",[7],58.8%
same,"viability, T/C",[8],36.8%
same,"viability, T/C","second compound 3.16 µM, first compound 0.000316 µM",117%
same,"viability, T/C","second compound 3.16 µM, first compound 0.001 µM",94.2%
same,"viability, T/C","second compound 3.16 µM, first compound 0.00316 µM",93.7%
same,"viability, T/C","second compound 3.16 µM, first compound 0.01 µM",82.2%
same,"viability, T/C",[9],55.5%
same,"viability, T/C",[10],40.6%
same,"viability, T/C","second compound 10 µM, first compound 0.000316 µM",87.6%
same,"viability, T/C","second compound 10 µM, first compound 0.001 µM",91.9%
same,"viability, T/C","second compound 10 µM, first compound 0.00316 µM",78.5%
same,"viability, T/C","second compound 10 µM, first compound 0.01 µM",57.1%
same,"viability, T/C",[11],51.9%
same,"viability, T/C",[12],27.1%
C#Cc1c(F)ccc2cc(O)cc(-c3ncc4c(N5CC6CCC(C5)N6)nc(OCC56CCCN5CC(F)C6)nc4c3F)c12 (centres undefined) + Cc1nc(NC(=O)N2CCCC2C(N)=O)sc1-c1ccnc(C(C)(C)C(F)(F)F)c1,IC50,second compound 0.0316 µM,> 10000 nM
same,IC50,second compound 0.1 µM,> 10000 nM
same,IC50,second compound 0.316 µM,> 10000 nM
same,IC50,second compound 1 µM,> 10000 nM
same,IC50,second compound 3.16 µM,9340 nM
same,IC50,second compound 10 µM,< 31.6 nM
same,"viability, T/C",[1],92.7%
same,"viability, T/C",[2],91.5%
same,"viability, T/C","second compound 0.0316 µM, first compound 0.316 µM",90.5%
same,"viability, T/C","second compound 0.0316 µM, first compound 1 µM",99.2%
same,"viability, T/C","second compound 0.0316 µM, first compound 3.16 µM",103%
same,"viability, T/C","second compound 0.0316 µM, first compound 10 µM",102%
same,"viability, T/C",[3],105%
same,"viability, T/C",[4],106%
same,"viability, T/C","second compound 0.1 µM, first compound 0.316 µM",112%
same,"viability, T/C","second compound 0.1 µM, first compound 1 µM",97%
same,"viability, T/C","second compound 0.1 µM, first compound 3.16 µM",105%
same,"viability, T/C","second compound 0.1 µM, first compound 10 µM",96.5%
same,"viability, T/C",[5],99.9%
same,"viability, T/C",[6],98.4%
same,"viability, T/C","second compound 0.316 µM, first compound 0.316 µM",121%
same,"viability, T/C","second compound 0.316 µM, first compound 1 µM",108%
same,"viability, T/C","second compound 0.316 µM, first compound 3.16 µM",99.1%
same,"viability, T/C","second compound 0.316 µM, first compound 10 µM",100%
same,"viability, T/C",[7],97.6%
same,"viability, T/C",[8],80.3%
same,"viability, T/C","second compound 1 µM, first compound 0.316 µM",89.3%
same,"viability, T/C","second compound 1 µM, first compound 1 µM",89.7%
same,"viability, T/C","second compound 1 µM, first compound 3.16 µM",90.9%
same,"viability, T/C","second compound 1 µM, first compound 10 µM",79%
same,"viability, T/C",[9],59.9%
same,"viability, T/C",[10],62.5%
same,"viability, T/C","second compound 3.16 µM, first compound 0.316 µM",59.1%
same,"viability, T/C","second compound 3.16 µM, first compound 1 µM",60.1%
same,"viability, T/C","second compound 3.16 µM, first compound 3.16 µM",54.6%
same,"viability, T/C","second compound 3.16 µM, first compound 10 µM",44.8%
same,"viability, T/C",[11],41.7%
same,"viability, T/C",[12],39.8%
same,"viability, T/C","second compound 10 µM, first compound 0.316 µM",33.2%
same,"viability, T/C","second compound 10 µM, first compound 1 µM",33.9%
same,"viability, T/C","second compound 10 µM, first compound 3.16 µM",31.3%
same,"viability, T/C","second compound 10 µM, first compound 10 µM",27.2%
